Reference: ChEMBL document CHEMBL1201862, “PubChem BioAssay data set” (2004)
Blank lines part the entries; values can stand above or below the molecule they belong to. Activity calls are given as the source filed them.

Columns and labels:
Large T antigen = Large T antigen (Simian virus 40, UniProt P03070); assay type: functional, Betapolyomavirus macacae;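 further: Confirmatory-stage PubChem screen for compounds that inhibit SV40 T antigen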
[1] = viability of HCT116 lacking mutant beta-catenin – cell-based, human colon tumor, dose response (AID 1045); assay type: functional;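 further: HCT116 colon tumor cells with beta catenin knocked out; cells exposed to compound for 60 hours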
[2] = viability of PTEN-deleted HCT116 cells – cell-based, HCT116 PTEN knockout, dose response (AID 1047); assay type: functional;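 further: HCT116 colon tumor cells with PTEN knocked out; cells exposed to compound for 60 hours before readout; potency for loss of cell viability measured by luminescence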
Cytochrome P450 1A2 = biological target: T1, Cytochrome P450 1A2 (Homo sapiens, UniProt P05177);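 further: PubChem cytochrome P450 panel assay, CYP1A2 panel member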
T1 sequence (P05177 whole entry): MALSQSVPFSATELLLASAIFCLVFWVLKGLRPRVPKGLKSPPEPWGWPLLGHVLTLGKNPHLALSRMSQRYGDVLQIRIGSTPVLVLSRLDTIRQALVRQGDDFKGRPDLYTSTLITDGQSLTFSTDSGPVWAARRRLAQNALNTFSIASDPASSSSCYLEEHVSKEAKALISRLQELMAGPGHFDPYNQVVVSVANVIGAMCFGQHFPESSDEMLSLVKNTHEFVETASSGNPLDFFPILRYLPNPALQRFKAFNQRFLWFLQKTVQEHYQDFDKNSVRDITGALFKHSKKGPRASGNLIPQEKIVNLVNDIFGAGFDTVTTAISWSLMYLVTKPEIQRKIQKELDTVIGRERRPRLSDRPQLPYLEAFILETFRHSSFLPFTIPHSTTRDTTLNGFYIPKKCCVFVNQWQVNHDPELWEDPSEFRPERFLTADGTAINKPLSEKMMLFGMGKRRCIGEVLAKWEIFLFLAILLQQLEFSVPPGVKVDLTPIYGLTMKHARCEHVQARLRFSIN

[3] = Luminescence Cell-Based Dose Retest to Confirm Inhibitors of Cancer Stem Cells. [Related pubchem assays (depositor defined):AID2717, AID2721]; assay type: functional; conditions: Homo sapiens
[4] = biological target: T2, Heat shock factor protein 1 (Mus musculus, UniProt P38532); test: decrease of HSF1-responsive luciferase luminescence – cell-based, NIH3T3, dose retest, confirmation (AID 2382); assay type: functional;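 further: NIH3T3 fibroblasts with HSF1-driven luciferase reporter stressed by proteasome inhibitor MG132; luminescence from HSF1-driven luciferase expression after 8 hours of MG132 stress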
T2 sequence (P38532 whole entry): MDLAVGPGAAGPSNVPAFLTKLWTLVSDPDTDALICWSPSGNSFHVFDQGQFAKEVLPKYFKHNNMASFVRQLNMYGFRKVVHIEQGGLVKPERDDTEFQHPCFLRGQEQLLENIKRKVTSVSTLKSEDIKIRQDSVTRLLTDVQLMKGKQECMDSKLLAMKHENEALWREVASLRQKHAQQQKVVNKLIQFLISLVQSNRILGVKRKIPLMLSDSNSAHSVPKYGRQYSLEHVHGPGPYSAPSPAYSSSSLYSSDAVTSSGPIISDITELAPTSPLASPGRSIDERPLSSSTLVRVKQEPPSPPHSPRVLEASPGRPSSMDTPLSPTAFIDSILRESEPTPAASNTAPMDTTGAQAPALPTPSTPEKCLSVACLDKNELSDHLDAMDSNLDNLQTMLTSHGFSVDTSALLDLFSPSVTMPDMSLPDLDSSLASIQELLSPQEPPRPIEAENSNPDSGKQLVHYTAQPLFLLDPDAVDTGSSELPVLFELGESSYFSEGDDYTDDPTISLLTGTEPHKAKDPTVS

[5] = biological target: T2, Heat shock factor protein 1; test: enhancement of HSF1-driven luciferase signal – cell-based, NIH3T3, luminescence, dose retest, confirmation (AID 435004); assay type: functional;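 further: stress induced by proteasome inhibitor MG132 added 30 min after compound; luciferase reporter driven by HSF1 response element in NIH3T3 cells; actives raise luminescence as potentiators of the MG132 stress response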
Cytochrome P450 2C19 = Cytochrome P450 2C19 (Homo sapiens, UniProt P33261); test: Cytochrome panel assay with activity outcomes. Panel member name: p450-cyp2c19 Compounds with AC50 equal or less than 10 uM are considered active; assay type: functional; conditions: read-out: AC50
Sequence of Cytochrome P450 2C19 (P33261 whole entry): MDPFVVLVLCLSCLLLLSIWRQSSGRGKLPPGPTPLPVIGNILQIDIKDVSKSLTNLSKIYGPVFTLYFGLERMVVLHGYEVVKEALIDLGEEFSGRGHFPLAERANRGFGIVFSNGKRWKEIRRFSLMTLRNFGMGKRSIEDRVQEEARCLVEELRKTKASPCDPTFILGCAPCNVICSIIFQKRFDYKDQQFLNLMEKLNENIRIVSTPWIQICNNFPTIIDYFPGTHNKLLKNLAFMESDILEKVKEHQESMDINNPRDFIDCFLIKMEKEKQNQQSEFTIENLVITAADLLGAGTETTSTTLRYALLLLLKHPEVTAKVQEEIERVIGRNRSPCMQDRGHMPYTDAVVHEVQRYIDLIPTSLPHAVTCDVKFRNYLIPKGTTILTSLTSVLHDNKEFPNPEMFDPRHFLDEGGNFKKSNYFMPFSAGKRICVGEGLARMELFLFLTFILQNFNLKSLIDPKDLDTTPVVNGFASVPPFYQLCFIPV

Cytochrome P450 2C9 = Cytochrome P450 2C9 (Homo sapiens, UniProt P11712)
Sequence of Cytochrome P450 2C9 (P11712 whole entry): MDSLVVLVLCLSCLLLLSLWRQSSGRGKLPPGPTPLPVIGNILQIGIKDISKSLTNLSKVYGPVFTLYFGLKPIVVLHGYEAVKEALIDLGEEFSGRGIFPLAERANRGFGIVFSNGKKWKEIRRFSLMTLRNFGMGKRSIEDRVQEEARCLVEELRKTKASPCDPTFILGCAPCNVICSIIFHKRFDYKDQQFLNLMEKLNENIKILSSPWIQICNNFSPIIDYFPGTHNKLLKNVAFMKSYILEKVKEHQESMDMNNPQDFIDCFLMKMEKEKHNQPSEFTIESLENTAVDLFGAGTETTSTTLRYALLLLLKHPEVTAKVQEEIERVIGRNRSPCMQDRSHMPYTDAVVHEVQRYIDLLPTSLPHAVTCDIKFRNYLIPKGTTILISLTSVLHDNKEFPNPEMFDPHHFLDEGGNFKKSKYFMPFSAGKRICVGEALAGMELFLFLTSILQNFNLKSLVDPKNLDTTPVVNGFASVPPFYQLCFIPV

[6] = biological target: T3, Rac GTPase-activating protein 1 (Homo sapiens, UniProt Q9H0H5); test: blockers of MgcRacGAP-driven Rac1 GTP hydrolysis – biochemical, ADP Hunter fluorescence, primary and confirmatory, confirmation (AID 624330); assay type: functional
T3 sequence (Q9H0H5 whole entry): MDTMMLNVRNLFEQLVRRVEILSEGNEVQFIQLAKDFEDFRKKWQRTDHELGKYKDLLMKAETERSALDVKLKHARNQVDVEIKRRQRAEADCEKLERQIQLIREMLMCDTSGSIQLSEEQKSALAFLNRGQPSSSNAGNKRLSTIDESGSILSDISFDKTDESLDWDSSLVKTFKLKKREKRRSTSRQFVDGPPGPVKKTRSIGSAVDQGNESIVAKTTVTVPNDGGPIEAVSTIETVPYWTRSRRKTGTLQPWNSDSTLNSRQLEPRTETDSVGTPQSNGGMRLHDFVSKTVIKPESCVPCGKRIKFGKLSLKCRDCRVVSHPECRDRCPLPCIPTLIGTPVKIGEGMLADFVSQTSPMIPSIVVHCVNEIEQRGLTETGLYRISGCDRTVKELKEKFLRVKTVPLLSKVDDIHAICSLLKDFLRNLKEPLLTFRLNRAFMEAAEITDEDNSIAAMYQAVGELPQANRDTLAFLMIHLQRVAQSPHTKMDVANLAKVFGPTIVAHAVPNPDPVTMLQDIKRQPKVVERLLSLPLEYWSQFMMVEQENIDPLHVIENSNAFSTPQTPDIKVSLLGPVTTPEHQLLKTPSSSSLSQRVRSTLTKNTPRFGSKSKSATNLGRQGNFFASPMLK

Sequence of Large T antigen (P03070 whole entry): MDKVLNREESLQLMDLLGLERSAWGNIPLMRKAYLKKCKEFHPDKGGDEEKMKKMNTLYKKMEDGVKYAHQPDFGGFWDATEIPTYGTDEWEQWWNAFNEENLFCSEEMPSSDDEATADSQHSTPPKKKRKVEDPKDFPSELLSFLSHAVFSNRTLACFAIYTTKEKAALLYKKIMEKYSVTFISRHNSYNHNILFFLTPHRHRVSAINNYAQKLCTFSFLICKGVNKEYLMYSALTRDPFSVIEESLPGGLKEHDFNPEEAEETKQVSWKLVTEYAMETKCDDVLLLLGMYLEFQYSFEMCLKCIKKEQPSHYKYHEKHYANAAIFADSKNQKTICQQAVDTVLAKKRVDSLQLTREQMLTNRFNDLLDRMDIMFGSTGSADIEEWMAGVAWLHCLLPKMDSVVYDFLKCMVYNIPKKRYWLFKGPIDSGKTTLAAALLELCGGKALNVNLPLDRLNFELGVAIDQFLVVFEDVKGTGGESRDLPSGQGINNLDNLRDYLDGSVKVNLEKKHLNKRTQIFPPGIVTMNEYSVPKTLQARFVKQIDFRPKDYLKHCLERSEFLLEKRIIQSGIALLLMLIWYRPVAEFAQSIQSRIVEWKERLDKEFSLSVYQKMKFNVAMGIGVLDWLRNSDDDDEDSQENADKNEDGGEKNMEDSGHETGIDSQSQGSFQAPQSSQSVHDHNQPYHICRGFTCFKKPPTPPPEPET

Structure (SMILES): Cc1cc2nc(-c3ccc(SCC(=O)N4CCc5ccccc54)nc3)[nH]c2cc1C
EC50 [1]: 7.55 µM (active)
EC50 [2]: 6.92 µM (active)
AC50 (Cytochrome P450 1A2): 3.16 µM (inconclusive)

Structure (SMILES): Nc1ccccc1/N=C/c1ccc(-c2cccc(Cl)c2)o1
AC50 [3]: 3.68 µM (active)

Structure (SMILES): CCCCn1c(-c2cccc(C)c2)nc2cc3nc(O)c(C(C)C)nc3cc21
AC50 [3]: 6.63 µM (active)

Structure (SMILES): CCOc1ccc2ncc(S(=O)(=O)c3ccc(C)cc3)c(N3CCC4(CC3)OCCO4)c2c1
EC50 [5]: > 260 µM (inactive)
EC50 [1]: 74 µM (active)
EC50 [2]: 40.5 µM (active)

Structure (SMILES): Cc1ccc(NC(=O)/C(=C\c2cccc([N+](=O)[O-])c2)NC(=O)c2cccs2)cc1
EC50 [1]: 24.1 µM (active)
AC50 (Cytochrome P450 2C19): 17.8 µM (inconclusive)
EC50 [2]: 22.8 µM (active)
AC50 (Cytochrome P450 2C9): 39.8 µM (inconclusive)

Structure (SMILES): O=C1C2C3C=CC(C4CC34)C2C(=O)N1/N=C/c1ccc(-c2ccc(F)cc2[N+](=O)[O-])o1 (configuration not stated)
AC50 [3]: 1.08 µM (active)

Structure (SMILES): O=C(Nc1nccs1)c1ccc(COc2ccccc2Br)o1
AC50 [3]: 3.14 µM (active)

Structure (SMILES): CC1=C(C(=O)Nc2ccccc2C)C(c2ccc(C)o2)n2c(s/c(=C/c3ccccc3)c2=O)=N1 (configuration not stated)
EC50 [1]: 442 µM (active)
EC50 [2]: 347 µM (active)

Other lines, results leading:

IC50 (Large T antigen): 9.75 µM (active)
Structure (SMILES): NNC(=O)C(=O)Nc1ccc(O)cc1

IC50 (Large T antigen): 6.59 µM (active)
Structure (SMILES): Cc1cc(SCC(=O)N/N=C/c2ccc(O)c(O)c2)nc2ccccc12

IC50 (Large T antigen): 23.4 µM (active)
Structure (SMILES): CCCc1cc(-c2[nH]nc(C(=O)OCC)c2-c2cscn2)c(O)cc1O

IC50 (Large T antigen): 13 µM (active)
Structure (SMILES): COc1cc(/C=C(\C#N)C(=O)N2CCCCC2)ccc1O

EC50 [4]: > 195 µM (not active)
IC50 (Large T antigen): 30.1 µM (active)
Structure (SMILES): CCOc1ccc(NCc2nnc(SCC(=O)Nc3cc(C)on3)n2-c2ccc(OC)cc2)cc1

AC50 (Cytochrome P450 2C9): 12.6 µM (inconclusive)
IC50 (Large T antigen): 19.1 µM (active)
Structure (SMILES): Nc1ccc(O)c(C(=O)O)c1 [MESALAMINE]

IC50 (Large T antigen): 25.9 µM (active)
Structure (SMILES): O=C(c1ccc([N+](=O)[O-])cc1)N1CCN(c2cccc3[nH]ccc23)CC1

IC50 [6]: 76.3 µM (active)
IC50 (Large T antigen): 26.7 µM (active)
Structure (SMILES): COc1cc(/C=N/NC(=O)C2=NNC(=O)C2C)ccc1O (configuration not stated)
